This is an account of results in paper PMC9481563, “Structural insights into the pSer/pThr dependent regulation of the SHP2 tyrosine phosphatase in insulin and CD28 signaling” (Nature Communications, 2022).

Changes are numbered by the printed parent chain.

Holding throughout (assay type): binding
Common to all, as to conditions: competitive FP titration vs CF-ppIRS1 100 nM, protein fixed; n = 3 technical replicates

The target of assay [1] is T1, inactive SHP2 catalytic domain Loopmut (K364E) (Homo sapiens, UniProt Q06124, C459S/K364E).
T1 construct: SHP2 K364E (Loopmut); 219-528 + C459S; His6 (N); made in house; host or cells: E. coli BL21 (DE3)
T1 sequence (Q06124 219-528 K364E/C459S): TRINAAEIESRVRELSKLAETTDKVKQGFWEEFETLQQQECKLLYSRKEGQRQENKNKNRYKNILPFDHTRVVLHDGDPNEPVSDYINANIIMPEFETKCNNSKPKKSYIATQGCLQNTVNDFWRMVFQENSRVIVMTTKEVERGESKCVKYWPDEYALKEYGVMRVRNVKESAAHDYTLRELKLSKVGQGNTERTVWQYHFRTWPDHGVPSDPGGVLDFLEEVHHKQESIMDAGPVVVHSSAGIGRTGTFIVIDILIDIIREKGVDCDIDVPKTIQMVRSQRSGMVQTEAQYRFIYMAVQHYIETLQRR
The assay can be described thus: Fluorescence polarization titrations, SHP2 Loopmut. From the text:
(§1) The two SH2 domains of PI3KR1 (UniProt P27986; nSH2: 321−433 cSH2: 614–724) were cloned from HEK293T cDNA pool, and subsequently ligated into a modified pET vector encoding maltose binding protein (MBP) tag on the N-terminal and a hexa-His tag on the C-terminal end of the construct. Similarly, the catalytic, tyrosine phosphatase domains of PTPRε (P23469 first domain: 107–399) and PTP1B (P18031; 1–229) were cloned from a HEK293T cDNA pool, and inserted into a pBH4 vector encoding an N-terminal His6 tag (for the final binding experiments, an MBP-tagged version of PTPRε was employed). […] Surface mutants of SHP2 were constructed from the SHP2-C459S plasmid, using the QuickChange protocol. The D425A and H426A catalytic site mutants and all enzymatically active surface mutants were generated similarly, but from the plasmid encoding the wild-type catalytic domain of SHP2. Wild-type C-terminal FLAG-tagged human IRS1 was cloned between HindIII-NotI sites of pcDNA3.1(+) vector (#V79020 Invitrogen, Waltham MA USA). Ser/Ala mutant IRS1 was generated by replacing the region of S616/S636/S666/S736 positions with a cassette carrying S616A/S636A/S666A/S736A mutations. All constructs were validated by complete Sanger sequencing before protein expression and purification. The oligonucleotide sequences used are shown on Supplementary table 4.
(§2) Fluorescence polarization (FP) assays were performed as follows: In direct titration experiments, protein concentration was varied in an 1/2 or 2/3 dilution series (90 µl protein+ 45 µl mix), while concentration of the reporter peptide (CF-ppIRS1) was kept constant at 100 nM. In competitive titrations, the labelled CF-ppIRS1 peptide and protein were both fixed (at 50–80% saturation) and the unlabelled competitor peptide concentration was varied. Fluorescence polarization was always measured in triplicates, on black Corning low volume round bottom 384-well plates (with 10 ul volumes), using a BioTek Cytatation 5 reader, with the green fluorescent protein (GFP) cube filter set (ex: 485/20, em: 528/20, gain: 50, height: 7.5). Fluorescence polarization data was evaluated on Origin 2018. The dissociation constants (Kd) were determined by using the appropriate quadratic and cubic equations inserted as a user-defined function and applying nonlinear fit until convergence. The fitting formulae are shown at Supplementary note 1. Kd ratio distributions for Fig. 6 were calculated using a Monte-Carlo approach (Supplementary note 2).
(§3) Supplementary note 1. Curve fitting of fluorescence polarization (FP) measurements.
(§4) To evaluate polarization values from direct and competitive titrations, we used the following fitting formulae in Origin 2018, as detailed below.
(§5) Direct titration curves were fitted according to the following formula: […]
(§6) Where Imin is the minimal anisotropy, Imax is the (asymptotically estimated) maximal intensity. K0 is the starting concentration of the protein, while T0 is the (fixed) concentration of the labelled peptide and Kd is the dissociation constant.
(§7) Competitive titration curves were fitted with a different formula (In addition to those defined above, constants KdT KdB B0 T0 and D0 here refer to the Kd derived from the direct titration, the unknown Kd of the analyte, the labelled peptide concentration, the competitor peptide concentration as well as the protein concentration, respectively).
(§8) The ± sign refers to two different scenarios, depending on the sign of discriminant (KdT > KdB or […]). For unknown analytes, the choice of sign is not arbitrary, as the fitting will not converge unless the appropriate formula is chosen: […]
(§9) Where A, B and C correspond to the following expressions: […]
On the technique in general: Polarisation of emitted light reports the rotation of a fluorescent probe.

Assay [2] concerns the target T2, inactive SHP2 catalytic domain Hillmut (K274E) (Homo sapiens, UniProt Q06124, C459S/K274E).
T2 construct: SHP2 K274E (Hillmut); 219-528 + C459S; His6 (N); made in house; host or cells: E. coli BL21 (DE3)
T2 sequence (Q06124 219-528 K274E/C459S): T1 sequence (Q06124 219-528 K364E/C459S) with K56E, E146K
As to the kind of experiment: Fluorescence polarization titrations, SHP2 Hillmut.
Source text: as §1, §2, §3, §4, §5, §6, §7, §8, §9

Assay [3] deals with T3, inactive SHP2 catalytic domain Loopinv (R362E) (Homo sapiens, UniProt Q06124, C459S/R362E).
T3 construct: SHP2 R362E (Loopinv); 219-528 + C459S; His6 (N); made in house; host or cells: E. coli BL21 (DE3)
T3 sequence (Q06124 219-528 R362E/C459S): T1 sequence (Q06124 219-528 K364E/C459S) with R144E, E146K
As to the kind of experiment: Fluorescence polarization titrations, SHP2 Loopinv.
Source text: as §1, §2, §3, §4, §5, §6, §7, §8, §9

As for `CSCC[C@H](NC(=O)[C@@H]1CCCN1C(=O)[C@H](CCSC)NC(=O)[C@H](Cc1ccc(OP(=O)(O)O)cc1)NC(=O)[C@H](CC(=O)O)NC(=O)CNC(=O)[C@H](CO)NC(=O)CNC(=O)[C@H](CCCCN)NC(=O)[C@H](CCCNC(=N)N)NC(=O)CN)C(=O)N[C@@H](COP(=O)(O)O)C(=O)N1CCC[C@H]1C(=O)N[C@@H](CCCCN)C(=O)N[C@@H](CO)C(=O)O` [ppIRS1], the dissociation constant (Kd) in assay [1] was 3.01 ± 0.42 µM; in assay [2], 2.23 ± 0.14 µM; in assay [3] it was 7.53 ± 1.1 µM. The “Kd (competitive titration)” value in assay [1] is reported as “bound stronger”.

With `CSCC[C@H](NC(=O)[C@H](Cc1ccc(OP(=O)(O)O)cc1)NC(=O)[C@H](CC(=O)O)NC(=O)[C@H](CO)NC(=O)[C@H](Cc1c[nH]cn1)NC(=O)[C@H](CC(C)C)NC(=O)[C@H](CC(C)C)NC(=O)[C@H](CCCNC(=N)N)NC(=O)[C@H](CO)NC(=O)[C@@H](N)CCCNC(=N)N)C(=O)N[C@@H](CC(N)=O)C(=O)N[C@@H](CCSC)C(=O)N[C@H](C(=O)N1CCC[C@H]1C(=O)N[C@@H](CCCNC(=N)N)C(=O)N[C@@H](CCCNC(=N)N)C(=O)O)[C@@H](C)O` [p0CD28], the Kd in assay [1] was 20.5 ± 1.53 µM; in assay [2], 54.6 ± 5.12 µM; in assay [3], 45.7 ± 7.49 µM.

`CC[C@H](C)[C@H](NC(=O)[C@H](CC(N)=O)NC(=O)[C@@H](NC(=O)[C@H](Cc1ccc(OP(=O)(O)O)cc1)NC(=O)[C@H](CCC(=O)O)NC(=O)CNC(=O)[C@@H]1CCCN1C(=O)[C@H](CO)NC(=O)[C@H](CCCCN)NC(=O)[C@@H]1CCCN1C(=O)[C@@H](N)CCC(=O)O)C(C)C)C(=O)N[C@@H](CCC(=O)O)C(=O)N[C@@H](Cc1ccccc1)C(=O)O` [p0SRev-IRS1]: the Kd in assay [1] came out at 7.73 ± 1.08 µM; in assay [2] it was 14.8 ± 0.88 µM; in assay [3] it was 9.35 ± 1.54 µM.

On to `CC[C@H](C)[C@H](NC(=O)[C@H](CC(N)=O)NC(=O)[C@@H](NC(=O)[C@H](Cc1ccc(OP(=O)(O)O)cc1)NC(=O)[C@H](CCC(=O)O)NC(=O)CNC(=O)[C@@H]1CCCN1C(=O)[C@H](COP(=O)(O)O)NC(=O)[C@H](CCCCN)NC(=O)[C@@H]1CCCN1C(=O)[C@@H](N)CCC(=O)O)C(C)C)C(=O)N[C@@H](CCC(=O)O)C(=O)N[C@@H](Cc1ccccc1)C(=O)O` [ppSRev-IRS1], for which the figures for the Kd in assay [1], in assay [2] and in assay [3] were 0.99 ± 0.07 µM, 2.56 ± 0.28 µM and 0.67 ± 0.16 µM, respectively.

`CSCC[C@H](NC(=O)[C@H](Cc1ccc(OP(=O)(O)O)cc1)NC(=O)[C@H](CC(=O)O)NC(=O)[C@H](CO)NC(=O)[C@H](Cc1c[nH]cn1)NC(=O)[C@H](CC(C)C)NC(=O)[C@H](CC(C)C)NC(=O)[C@H](CCCNC(=N)N)NC(=O)[C@H](CO)NC(=O)[C@@H](N)CCCNC(=N)N)C(=O)N[C@@H](CC(N)=O)C(=O)N[C@@H](CCSC)C(=O)N[C@H](C(=O)N1CCC[C@H]1C(=O)N[C@@H](CCCNC(=N)N)C(=O)N[C@@H](CCCNC(=N)N)C(=O)O)[C@@H](C)OP(=O)(O)O` [ppCD28]: the Kd in assay [1] was determined as 6.66 ± 0.38 µM; in assay [2], 11 ± 0.57 µM; in assay [3], 15.2 ± 0.49 µM.

Turning to `CSCC[C@H](NC(=O)[C@@H]1CCCN1C(=O)[C@H](CCSC)NC(=O)[C@H](Cc1ccc(OP(=O)(O)O)cc1)NC(=O)[C@H](CC(=O)O)NC(=O)CNC(=O)[C@H](CO)NC(=O)CNC(=O)[C@H](CCCCN)NC(=O)[C@H](CCCNC(=N)N)NC(=O)CN)C(=O)N[C@@H](CO)C(=O)N1CCC[C@H]1C(=O)N[C@@H](CCCCN)C(=O)N[C@@H](CO)C(=O)O` [p0IRS1], the figures for the equilibrium dissociation constant (Kd) in assay [1], in assay [2] and in assay [3] were 23.3 ± 0.9 µM, 83.9 ± 2.58 µM and 61.8 ± 16.2 µM, respectively. Besides, the “Kd (competitive titration)” value in assay [1] was “bound stronger”.

The term Kd denotes the concentration at which binding is half-saturated. Read a low Kd as a tighter complex.
